Key:
PI3K-delta = molecular target: T1, PI3K-delta (Homo sapiens, UniProt O00329); experiment: HTRF PI3K biochemical assay, delta isoform; settings: form screened (neutral or TFA salt) given, read-out: PI3Kdelta IC50
T1 construct: purchased Upstate; Millipore 14-604

PI3K-alpha = molecular target: T2, PI3K-alpha (Homo sapiens, UniProt P42336); experiment: HTRF PI3K biochemical assay, alpha isoform; settings: ratio PI3K-alpha IC50 value / PI3K-delta IC50 value
T2 construct: purchased Upstate; Millipore 14-602
T2 sequence (P42336 whole entry, canonical isoform): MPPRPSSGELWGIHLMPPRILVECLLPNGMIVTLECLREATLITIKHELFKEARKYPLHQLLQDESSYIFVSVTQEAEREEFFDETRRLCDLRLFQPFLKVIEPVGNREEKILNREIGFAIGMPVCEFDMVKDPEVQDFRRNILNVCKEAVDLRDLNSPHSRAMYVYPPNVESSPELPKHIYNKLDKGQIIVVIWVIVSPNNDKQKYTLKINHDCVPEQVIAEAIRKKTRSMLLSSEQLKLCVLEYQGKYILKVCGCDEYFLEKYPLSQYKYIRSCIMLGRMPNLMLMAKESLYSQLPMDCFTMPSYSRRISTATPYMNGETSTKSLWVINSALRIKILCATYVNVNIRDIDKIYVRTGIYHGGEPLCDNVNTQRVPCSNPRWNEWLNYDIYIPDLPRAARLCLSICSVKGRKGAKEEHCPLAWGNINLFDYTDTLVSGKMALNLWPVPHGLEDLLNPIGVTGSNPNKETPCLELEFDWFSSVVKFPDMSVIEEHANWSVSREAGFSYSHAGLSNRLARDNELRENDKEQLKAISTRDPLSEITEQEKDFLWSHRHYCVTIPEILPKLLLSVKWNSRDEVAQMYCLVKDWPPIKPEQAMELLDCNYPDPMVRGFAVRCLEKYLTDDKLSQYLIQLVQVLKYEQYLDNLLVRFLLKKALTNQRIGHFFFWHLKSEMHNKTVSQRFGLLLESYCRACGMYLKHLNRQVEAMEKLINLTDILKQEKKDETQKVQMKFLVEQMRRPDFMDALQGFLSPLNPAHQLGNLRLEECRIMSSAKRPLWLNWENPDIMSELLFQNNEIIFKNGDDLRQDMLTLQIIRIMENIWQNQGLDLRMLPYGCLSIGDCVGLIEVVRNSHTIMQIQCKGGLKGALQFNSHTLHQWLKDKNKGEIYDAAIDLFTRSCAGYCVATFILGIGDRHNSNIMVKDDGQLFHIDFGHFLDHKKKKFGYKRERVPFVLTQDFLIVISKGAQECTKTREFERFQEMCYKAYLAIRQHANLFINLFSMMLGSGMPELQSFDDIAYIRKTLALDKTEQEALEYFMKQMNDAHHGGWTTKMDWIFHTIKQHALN
T2 sequence (P27986 whole entry partner, canonical isoform): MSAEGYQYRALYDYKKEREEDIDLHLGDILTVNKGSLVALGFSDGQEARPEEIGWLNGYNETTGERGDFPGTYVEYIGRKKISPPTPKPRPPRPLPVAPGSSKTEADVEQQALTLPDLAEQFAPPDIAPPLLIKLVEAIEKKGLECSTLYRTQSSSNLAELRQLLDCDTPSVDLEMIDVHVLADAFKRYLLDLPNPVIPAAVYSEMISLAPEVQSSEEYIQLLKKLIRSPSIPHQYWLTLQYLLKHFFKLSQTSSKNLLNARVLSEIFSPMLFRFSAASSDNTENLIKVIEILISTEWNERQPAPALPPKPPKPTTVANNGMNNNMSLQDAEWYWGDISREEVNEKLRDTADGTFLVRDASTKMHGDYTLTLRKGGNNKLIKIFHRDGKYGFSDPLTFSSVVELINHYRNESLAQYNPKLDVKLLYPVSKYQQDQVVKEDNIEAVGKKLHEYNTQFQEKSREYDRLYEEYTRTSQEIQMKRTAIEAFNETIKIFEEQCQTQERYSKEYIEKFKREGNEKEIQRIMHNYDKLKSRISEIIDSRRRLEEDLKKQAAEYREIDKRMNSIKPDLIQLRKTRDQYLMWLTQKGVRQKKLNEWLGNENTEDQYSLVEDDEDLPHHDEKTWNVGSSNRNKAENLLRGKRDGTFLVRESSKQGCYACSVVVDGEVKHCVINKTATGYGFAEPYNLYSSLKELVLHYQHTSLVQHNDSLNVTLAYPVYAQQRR

T1 sequence (O00329 whole entry, canonical isoform): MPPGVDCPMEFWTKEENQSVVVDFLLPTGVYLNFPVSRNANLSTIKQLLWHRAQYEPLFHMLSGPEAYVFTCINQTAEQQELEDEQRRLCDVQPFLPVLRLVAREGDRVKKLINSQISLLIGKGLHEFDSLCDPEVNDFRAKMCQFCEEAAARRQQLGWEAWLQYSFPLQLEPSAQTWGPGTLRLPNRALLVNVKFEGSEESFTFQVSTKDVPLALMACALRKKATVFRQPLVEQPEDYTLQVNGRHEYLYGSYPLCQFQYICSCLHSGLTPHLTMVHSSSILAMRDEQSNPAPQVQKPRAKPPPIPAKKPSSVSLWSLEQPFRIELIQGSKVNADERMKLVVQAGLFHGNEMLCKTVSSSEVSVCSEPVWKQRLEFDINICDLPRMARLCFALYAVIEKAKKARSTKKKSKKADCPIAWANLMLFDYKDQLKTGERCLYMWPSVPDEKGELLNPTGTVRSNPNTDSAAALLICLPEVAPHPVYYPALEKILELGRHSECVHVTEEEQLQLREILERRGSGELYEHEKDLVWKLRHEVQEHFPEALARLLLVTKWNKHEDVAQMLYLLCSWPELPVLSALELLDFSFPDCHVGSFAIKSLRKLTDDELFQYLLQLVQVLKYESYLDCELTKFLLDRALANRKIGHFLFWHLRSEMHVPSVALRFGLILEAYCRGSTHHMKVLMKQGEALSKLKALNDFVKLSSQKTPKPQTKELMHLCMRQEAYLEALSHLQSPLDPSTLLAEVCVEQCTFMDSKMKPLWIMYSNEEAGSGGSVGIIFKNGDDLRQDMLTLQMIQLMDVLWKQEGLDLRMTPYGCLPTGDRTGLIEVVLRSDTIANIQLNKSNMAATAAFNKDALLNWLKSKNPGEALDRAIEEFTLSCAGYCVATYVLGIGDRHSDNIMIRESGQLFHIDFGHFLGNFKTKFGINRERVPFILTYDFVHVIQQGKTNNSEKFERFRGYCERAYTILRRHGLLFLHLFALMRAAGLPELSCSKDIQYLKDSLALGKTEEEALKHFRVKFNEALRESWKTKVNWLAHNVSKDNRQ
T1 sequence (P27986 whole entry partner, canonical isoform): as the sequence (P27986 whole entry partner, canonical isoform) above

Row | SMILES | IC50 (PI3K-delta) [nM] | Selectivity versus PI3Kalpha (PI3K-alpha)
1 | CCn1c(-c2cnc(C)nc2)nc2c(N[C@H]3C[C@H](C(=O)O)N(C(=O)C4CC4)C3)ncnc21 [Compound 15-1, (4S)-1-(cyclopropylcarbonyl)-4-{[9-ethyl-8-(2-methylpyrimidin-5-yl)-9H-purin-6-yl]amino}-D-proline] | 2.5 | >10
2 | CCn1c(-c2cnc(C)nc2)nc2c(N[C@H]3C[C@H](C(=O)N(C)C)N(C(=O)C4CC4)C3)ncnc21 [Compound 15-2, (4S)-1-(cyclopropylcarbonyl)-4-{[9-ethyl-8-(2-methylpyrimidin-5-yl)-9H-purin-6-yl]amino}-N,N-dimethyl-D-prolinamide] | 14 | >10
3 | CCn1c(-c2cnc(C)nc2)nc2c(N[C@H]3C[C@H](C(=O)NC)N(C(=O)C4CC4)C3)ncnc21 [Compound 15-3, (4S)-1-(cyclopropylcarbonyl)-4-{[9-ethyl-8-(2-methylpyrimidin-5-yl)-9H-purin-6-yl]amino}-N-methyl-D-prolinamide] | 12 | >10
4 | CCn1c(-c2cnc(C)nc2)nc2c(N[C@H]3C[C@H](C(=O)NC(C)C)N(C(=O)C4CC4)C3)ncnc21 [Compound 15-4, (4S)-1-(cyclopropylcarbonyl)-4-{[9-ethyl-8-(2-methylpyrimidin-5-yl)-9H-purin-6-yl]amino}-N-(1-methylethyl)-D-prolinamide] | 15 | >10
5 | CCn1c(-c2cnc(C)nc2)nc2c(N[C@H]3C[C@H](C(N)=O)N(C(=O)C4CC4)C3)ncnc21 [Compound 15-5, (4S)-1-(cyclopropylcarbonyl)-4-{[9-ethyl-8-(2-methylpyrimidin-5-yl)-9H-purin-6-yl]amino}-D-prolinamide] | 3 | >10
6 | CCn1c(-c2cnc(C)nc2)nc2c(N[C@H]3C[C@H](C(=O)N[C@@H](C)C(C)C)N(C(=O)C4CC4)C3)ncnc21 [Compound 15-6, (4S)-1-(cyclopropylcarbonyl)-N-[(1S)-1,2-dimethylpropyl]-4-{[9-ethyl-8-(2-methylpyrimidin-5-yl)-9H-purin-6-yl]amino}-D-prolinamide] | 20 | >10
7 | CCn1c(-c2cnc(C)nc2)nc2c(N[C@H]3C[C@H](C(=O)NCCO)N(C(=O)C4CC4)C3)ncnc21 [Compound 15-7, (4S)-1-(cyclopropylcarbonyl)-4-{[9-ethyl-8-(2-methylpyrimidin-5-yl)-9H-purin-6-yl]amino}-N-(2-hydroxyethyl)-D-prolinamide] | 5.8 | >10
8 | CCn1c(-c2cnc(C)nc2)nc2c(N[C@H]3C[C@H](C(=O)NCCN(C)C)N(C(=O)C4CC4)C3)ncnc21 [Compound 15-8, (4S)-1-(cyclopropylcarbonyl)-N-[2-(dimethylamino)ethyl]-4-{[9-ethyl-8-(2-methylpyrimidin-5-yl)-9H-purin-6-yl]amino}-D-prolinamide] | 8.8 | >10
9 | CCn1c(-c2cnc(C)nc2)nc2c(N[C@H]3C[C@@H](C(=O)NC)N(C(=O)C4CC4)C3)ncnc21 [Compound 15-9, (4S)-1-(cyclopropylcarbonyl)-4-{[9-ethyl-8-(2-methylpyrimidin-5-yl)-9H-purin-6-yl]amino}-N-methyl-L-prolinamide] | 46 | >10
10 | CCn1c(-c2cnc(C)nc2)nc2c(N[C@H]3C[C@@H](C(N)=O)N(C(=O)C4CC4)C3)ncnc21 [Compound 15-10, (4S)-1-(cyclopropylcarbonyl)-4-{[9-ethyl-8-(2-methylpyrimidin-5-yl)-9H-purin-6-yl]amino}-L-prolinamide] | 60 | >10
11 | CCn1c(-c2cnc(C)nc2)nc2c(N[C@H]3C[C@H](C(N)=O)N(c4ccccn4)C3)ncnc21 [Compound 15-11, (4S)-4-{[9-ethyl-8-(2-methylpyrimidin-5-yl)-9H-purin-6-yl]amino}-1-pyridin-2-yl-D-prolinamide] | 7.7 | >10
12 | CCn1c(-c2cnc(C)nc2)nc2c(N[C@H]3C[C@H](C(=O)NCCO)N(c4ccccn4)C3)ncnc21 [Compound 15-12, (4S)-4-{[9-ethyl-8-(2-methylpyrimidin-5-yl)-9H-purin-6-yl]amino}-N-(2-hydroxyethyl)-1-pyridin-2-yl-D-prolinamide] | 4.6 | >10
13 | CCn1c(-c2cnc(C)nc2)nc2c(N[C@H]3CN[C@@H](C(=O)N(C)C4CC4)C3)ncnc21 [Compound 15-13, (4R)-N-cyclopropyl-4-{[9-ethyl-8-(2-methylpyrimidin-5-yl)-9H-purin-6-yl]amino}-N-methyl-D-prolinamide] | 29 | >10
14 | CCn1c(-c2cnc(C)nc2)nc2c(N[C@H]3C[C@H](c4nnc(C)o4)N(C(=O)C4CC4)C3)ncnc21 [Compound 15-14, N-[(3S,5R)-1-(cyclopropylcarbonyl)-5-(5-methyl-1,3,4-oxadiazol-2-yl)pyrrolidin-3-yl]-9-ethyl-8-(2-methylpyrimidin-5-yl)-9H-purin-6-amine] | 39 | >10
15 | CCn1c(C#Cc2ccccc2)nc2c(N[C@H]3CCN(C(=O)C4CC4)C3)ncnc21 [Compound 16-1, N-[(3S)-1-(cyclopropylcarbonyl)pyrrolidin-3-yl]-9-ethyl-8-(phenylethynyl)-9H-purin-6-amine] | 1.9 | >10
16 | CCn1c(C#Cc2cncnc2)nc2c(N[C@H]3CCN(C(=O)C4CC4)C3)ncnc21 [Compound 16-2, N-[(3S)-1-(cyclopropylcarbonyl)pyrrolidin-3-yl]-9-ethyl-8-(pyrimidin-5-ylethynyl)-9H-purin-6-amine] | 20 | >10
17 | CCn1c(C#CCOC)nc2c(N[C@H]3CCN(C(=O)C4CC4)C3)ncnc21 [Compound 16-3, N-[(3S)-1-(cyclopropylcarbonyl)pyrrolidin-3-yl]-9-ethyl-8-(3-methoxyprop-1-yn-1-yl)-9H-purin-6-amine] | 63 | >10
18 | CCn1c(C#CCO)nc2c(N[C@H]3CCN(C(=O)C4CC4)C3)ncnc21 [Compound 16-4, 3-(6-{[(3S)-1-(cyclopropylcarbonyl)pyrrolidin-3-yl]amino}-9-ethyl-9H-purin-8-yl)prop-2-yn-1-ol] | 48 | >10
